Measurements: ChEMBL document CHEMBL3102714 (J Med Chem, 2013)
Where a SMILES comes first, the peptide text is derived from it.

How the values were obtained:
Format in all cases: cell-based
[1] = target: Neuronal acetylcholine receptor; alpha3/beta2 (Homo sapiens, UniProt P17787+P32297); assay: Antagonist activity at human alpha3beta2 nAChR expressed in Xenopus oocytes assessed as inhibition of ACh-induced current by voltage clamp electrophysiology method
[2] = target: Nicotinic acetylcholine receptor alpha6/alpha3/beta4 (Homo sapiens, UniProt P30926+P32297+Q15825); assay: Antagonist activity at human alpha6alpha3beta4 nAChR expressed in Xenopus oocytes assessed as inhibition of ACh-induced current by voltage clamp electrophysiology method
[3] = target: Neuronal acetylcholine receptor; alpha3/beta4 (Homo sapiens, UniProt P30926+P32297); assay: Antagonist activity at human alpha3beta4 nAChR expressed in Xenopus oocytes assessed as inhibition of ACh-induced current by voltage clamp electrophysiology method
[4] = target: Neuronal acetylcholine receptor; alpha3/alpha6/beta2/beta3 (Homo sapiens, UniProt P17787+P32297+Q05901+Q15825); assay: Antagonist activity at human alpha6/alpha3beta2beta3 nAChR expressed in Xenopus oocytes assessed as inhibition of ACh-induced current by voltage clamp electrophysiology method
Chain of Neuronal acetylcholine receptor; alpha3/alpha6/beta2/beta3 (P17787 whole entry): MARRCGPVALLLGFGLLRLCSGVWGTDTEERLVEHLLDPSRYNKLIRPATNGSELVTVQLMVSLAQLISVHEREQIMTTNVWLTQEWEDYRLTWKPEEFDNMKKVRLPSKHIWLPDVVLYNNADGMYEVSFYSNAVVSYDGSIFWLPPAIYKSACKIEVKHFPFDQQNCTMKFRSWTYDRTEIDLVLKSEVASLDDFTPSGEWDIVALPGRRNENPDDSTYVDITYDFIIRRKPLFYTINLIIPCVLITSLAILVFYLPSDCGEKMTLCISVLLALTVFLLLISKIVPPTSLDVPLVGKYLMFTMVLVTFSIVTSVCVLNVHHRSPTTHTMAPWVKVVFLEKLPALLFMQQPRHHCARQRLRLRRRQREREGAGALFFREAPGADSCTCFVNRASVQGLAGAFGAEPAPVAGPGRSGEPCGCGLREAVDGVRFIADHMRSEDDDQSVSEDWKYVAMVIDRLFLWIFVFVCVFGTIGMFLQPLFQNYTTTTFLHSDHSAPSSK
Chain of Neuronal acetylcholine receptor; alpha3/alpha6/beta2/beta3 (P32297 whole entry): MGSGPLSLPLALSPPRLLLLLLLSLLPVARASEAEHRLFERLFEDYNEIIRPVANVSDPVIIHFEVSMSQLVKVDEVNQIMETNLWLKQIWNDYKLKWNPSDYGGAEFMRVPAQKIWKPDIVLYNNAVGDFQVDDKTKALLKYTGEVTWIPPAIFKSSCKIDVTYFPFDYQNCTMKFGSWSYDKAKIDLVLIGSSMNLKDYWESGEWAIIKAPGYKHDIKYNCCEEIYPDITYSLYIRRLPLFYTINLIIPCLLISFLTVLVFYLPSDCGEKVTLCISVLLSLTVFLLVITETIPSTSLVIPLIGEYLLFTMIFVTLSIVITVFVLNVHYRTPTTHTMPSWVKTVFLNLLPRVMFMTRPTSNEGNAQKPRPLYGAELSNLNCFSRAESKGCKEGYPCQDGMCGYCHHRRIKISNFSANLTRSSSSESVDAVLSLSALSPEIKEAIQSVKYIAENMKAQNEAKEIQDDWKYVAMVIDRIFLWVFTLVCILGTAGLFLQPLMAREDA
Chain of Neuronal acetylcholine receptor; alpha3/alpha6/beta2/beta3 (Q15825 whole entry): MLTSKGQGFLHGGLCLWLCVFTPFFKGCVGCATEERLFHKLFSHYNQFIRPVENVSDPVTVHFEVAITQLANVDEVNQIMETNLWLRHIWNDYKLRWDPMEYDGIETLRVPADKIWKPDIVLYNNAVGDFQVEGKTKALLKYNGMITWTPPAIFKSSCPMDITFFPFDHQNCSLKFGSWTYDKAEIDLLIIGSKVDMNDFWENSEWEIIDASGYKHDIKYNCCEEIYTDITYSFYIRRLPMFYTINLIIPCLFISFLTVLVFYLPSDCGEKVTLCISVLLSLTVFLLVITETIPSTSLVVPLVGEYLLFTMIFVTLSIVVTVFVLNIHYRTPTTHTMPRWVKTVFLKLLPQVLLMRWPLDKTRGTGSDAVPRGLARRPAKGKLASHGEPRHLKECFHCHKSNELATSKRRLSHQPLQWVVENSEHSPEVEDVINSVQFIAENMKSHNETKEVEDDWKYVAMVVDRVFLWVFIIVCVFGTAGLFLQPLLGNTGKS
Chain of Neuronal acetylcholine receptor; alpha3/alpha6/beta2/beta3 (Q05901 whole entry): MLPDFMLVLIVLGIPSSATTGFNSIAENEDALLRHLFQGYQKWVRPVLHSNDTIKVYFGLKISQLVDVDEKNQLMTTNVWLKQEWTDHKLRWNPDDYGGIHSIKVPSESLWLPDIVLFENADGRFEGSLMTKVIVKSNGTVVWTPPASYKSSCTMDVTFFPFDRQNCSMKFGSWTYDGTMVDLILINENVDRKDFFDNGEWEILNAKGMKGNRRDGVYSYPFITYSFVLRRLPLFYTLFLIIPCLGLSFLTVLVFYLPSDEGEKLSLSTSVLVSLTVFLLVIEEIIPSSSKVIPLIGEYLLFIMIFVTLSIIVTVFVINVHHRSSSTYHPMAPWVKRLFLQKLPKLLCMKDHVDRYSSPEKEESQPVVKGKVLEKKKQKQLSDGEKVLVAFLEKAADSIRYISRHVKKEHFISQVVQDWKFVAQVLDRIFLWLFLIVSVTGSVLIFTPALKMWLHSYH

Chain of Neuronal acetylcholine receptor; alpha3/beta2 (P17787 whole entry): as the sequence (P17787 whole entry) above
Chain of Neuronal acetylcholine receptor; alpha3/beta2 (P32297 whole entry): as the sequence (P32297 whole entry) above
Chain of Neuronal acetylcholine receptor; alpha3/beta4 (P30926 whole entry): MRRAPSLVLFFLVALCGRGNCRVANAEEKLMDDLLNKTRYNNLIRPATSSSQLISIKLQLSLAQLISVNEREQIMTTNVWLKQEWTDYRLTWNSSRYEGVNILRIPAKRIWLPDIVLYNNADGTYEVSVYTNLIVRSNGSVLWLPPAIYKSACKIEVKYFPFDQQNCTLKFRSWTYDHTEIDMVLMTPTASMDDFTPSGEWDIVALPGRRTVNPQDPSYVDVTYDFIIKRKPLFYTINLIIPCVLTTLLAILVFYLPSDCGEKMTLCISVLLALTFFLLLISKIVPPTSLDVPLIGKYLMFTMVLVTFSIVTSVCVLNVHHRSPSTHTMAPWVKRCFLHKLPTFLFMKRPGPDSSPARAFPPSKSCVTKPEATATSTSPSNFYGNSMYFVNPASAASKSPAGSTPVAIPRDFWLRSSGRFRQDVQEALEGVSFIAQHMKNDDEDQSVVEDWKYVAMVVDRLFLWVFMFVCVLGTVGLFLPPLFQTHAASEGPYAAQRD
Chain of Neuronal acetylcholine receptor; alpha3/beta4 (P32297 whole entry): as the sequence (P32297 whole entry) above
Chain of Nicotinic acetylcholine receptor alpha6/alpha3/beta4 (P30926 whole entry): as the sequence (P30926 whole entry) above
Chain of Nicotinic acetylcholine receptor alpha6/alpha3/beta4 (P32297 whole entry): as the sequence (P32297 whole entry) above
Chain of Nicotinic acetylcholine receptor alpha6/alpha3/beta4 (Q15825 whole entry): as the sequence (Q15825 whole entry) above

## CC[C@H](C)[C@@H]1NC(=O)[C@H](CCC(N)=O)NC(=O)[C@@H]2CCCN2C(=O)[C@H](CC(N)=O)NC(=O)[C@H](Cc2cnc[nH]2)NC(=O)[C@H](C(C)C)NC(=O)[C@H]([C@@H](C)O)NC(=O)[C@@H]2CSSC[C@H](NC(=O)[C@@H]3CCCN3C(=O)[C@H](CC(=O)O)NC(=O)[C@@H](N)CCCN=C(N)N)C(=O)N[C@@H](CSSC[C@@H](C(N)=O)NC1=O)C(=O)N[C@@H](CO)C(=O)N[C@@H](CC(N)=O)C(=O)N1CCC[C@H]1C(=O)N[C@@H](C(C)C)C(=O)N2 (HELM PEPTIDE1{R.D.P.C.C.S.N.P.V.C.T.V.H.N.P.Q.I.C.[am]}$PEPTIDE1,PEPTIDE1,4:R3-10:R3|PEPTIDE1,PEPTIDE1,5:R3-18:R3$$$V2.0)
[1]
  IC50: 0.0742 µM
[2]
  IC50: 0.0305 µM
[3]
  IC50: 0.518 µM
[4]
  IC50: 0.00095 µM
